Assay results as given in patent US5126246A, “Reagent for analysis of triglycerides and analysis using the same” (priority 1988, dated 1992).
“And” between values parts separate entries of the source, which are not always exact repeats. Equal entries are not always repeated.

Assays:
monoglyceride lipase [1] = assay: Substrate specificity of the monoglyceride lipase (enzymatic activity assay, glycerol formed); format: biochemical, Bacillus stearothermophilus H-165; conditions: for Glycerol hydrolyzed from substrate in the presence of the monoglyceride lipase: diglyceride or triglyceride used as substrate; for Activity of lipase (%): relative activity of monoglyceride lipase on the substrate, Monolaurin 100.0
Experimental: (8) Substrate specificity: The substrate specificity of the monoglyceride lipase in this invention is investigated under conditions where the below-described assay method of enzymatic activity for the monoglyceride lipase is conducted.
MEASUREMENT METHOD OF ENZYMATIC ACTIVITY OF MONOGLYCERIDE LIPASE
(§1) To 0.4 ml of a solution of the above composition, is added 50 μl of 10 mM monolaurin (0.5 % aqueous solution of "Triton X-100"). The resultant mixture is pre-incubated at 37° C. for 2-3 minutes and 50 μl of an enzyme solution is added to initiate a reaction. Exactly 10 minutes later, 2.5 ml of 5 % SDS (sodium dodecyl sulfate) is added to terminate the reaction. The absorbance is measured at 550 nm. Regarding the enzymatic activity, the activity capable of producing 1 μmole of glycerol per minute is defined at 1 Unit (1 U). The following equation is used for calculation of enzymatic activity (potency): [formula] wherein ΔA 550: Absorbance at the wavelength of 550 nm

monoglyceride lipase [2] = assay: Effects of surface active agents and metal ions on the monoglyceride lipase; format: biochemical, Bacillus stearothermophilus H-165; conditions: for Effect of added reagent on monoglyceride lipase activity: Table 2; for Activity of lipase (%): no reagent 100
Experimental: The mon[…] is not affected by the addition of divalent metal ions such as Ca^++ and Mg^++.
MEASUREMENT METHOD OF ENZYMATIC ACTIVITY OF MON[…]
as §1

[3] = tested on: Pancreatic lipase and the monoglyceride lipase; assay: Glycerol liberated from α,β-diglyceride substrates by pancreatic lipase plus monoglyceride lipase; format: biochemical; conditions: pancreatic lipase and monoglyceride lipase applied
Excerpt: (2) Substrate specificity of the monoglyceride lipase upon use of α,β-diglyceride as a substrate:
(§2) (i) Pancreatic lipase and the monoglyceride lipase are applied to the below-described α,β-diglyceride substrates. Their α-positions are hydrolyzed by the pancreatic lipase and then the resulting β-monoglycerides are allowed to react with the monoglyceride lipase, in order to analyze glycerol thus liberated. Glycerol is detected with respect to the substrates, namely,α-oleyl-β-palmitoyldiglyceride, α-palmitoly-β-oleolyldiglyceride and α,β-dilinoleylglyceride. However, glycerol is not detected when only pancreatic lipase is used.

pancreatic lipase = target: T1, pancreatic lipase (Sus scrofa, UniProt P00591); assay: Glycerol liberated from α,β-diglyceride substrates by pancreatic lipase only; format: biochemical; conditions: only pancreatic lipase used
T1 sequence (P00591 1-450): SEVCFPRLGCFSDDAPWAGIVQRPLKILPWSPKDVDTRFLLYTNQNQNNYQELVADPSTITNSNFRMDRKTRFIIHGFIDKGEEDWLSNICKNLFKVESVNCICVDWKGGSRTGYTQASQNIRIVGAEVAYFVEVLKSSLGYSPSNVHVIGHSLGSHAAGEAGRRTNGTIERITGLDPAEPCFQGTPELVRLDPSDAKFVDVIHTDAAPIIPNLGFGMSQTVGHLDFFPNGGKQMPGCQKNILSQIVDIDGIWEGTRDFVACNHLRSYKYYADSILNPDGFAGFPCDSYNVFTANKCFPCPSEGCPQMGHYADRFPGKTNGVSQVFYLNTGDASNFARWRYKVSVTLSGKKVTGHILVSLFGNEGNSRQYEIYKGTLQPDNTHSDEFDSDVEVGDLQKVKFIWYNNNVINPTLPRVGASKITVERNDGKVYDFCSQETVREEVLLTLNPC
Excerpt: as §2

[4] = reagent concentration 1 mM, 10 min

SMILES: CCCCC/C=C\C/C=C\CCCCCCCC(=O)OCC(O)COC(=O)CCCCCCC/C=C\C/C=C\CCCCC [1,3-dilinolein]
- Glycerol hydrolyzed from substrate in the presence of the monoglyceride lipase (monoglyceride lipase [1]): no glycerol hydrolyzed is detected
- Activity of lipase (%) (monoglyceride lipase [1]): 0%

SMILES: CCCCCCCC/C=C\CCCCCCCC(=O)OCC(O)CO (stereo not drawn) [Monoolein]
- Activity of lipase (%) (monoglyceride lipase [1]): 56.3% and 75.6%

SMILES: CCCCCCCCCCCC(=O)OCC(O)CO (stereo not drawn) [Monolaurin]
- Activity of lipase (%) (monoglyceride lipase [1]): 100.0%

SMILES: [Ca+2].[Cl-].[Cl-] [CaCl2, calcium chloride]
- Effect of added reagent on monoglyceride lipase activity (monoglyceride lipase [2]): not affected
- Activity of lipase (%) (monoglyceride lipase [2]; [4]): 100.0%

SMILES: C[C@H](CCC(=O)O)[C@H]1CC[C@H]2[C@@H]3[C@H](O)C[C@@H]4C[C@H](O)CC[C@]4(C)[C@H]3C[C@H](O)[C@]12C [Cholic acid]
- Effect of added reagent on monoglyceride lipase activity (monoglyceride lipase [2]): inhibition of the activity is observed in the high concentration range
- Activity of lipase (%) (monoglyceride lipase [2]; [4]): 100.0%
- Activity of lipase (%) (monoglyceride lipase [2]; reagent concentration 10 mM): 92.6%

SMILES: CCCCCCCC/C=C\CCCCCCCC(=O)OC(CO)COC(=O)CCCCCCCCCCCCCCC (stereo not drawn) [α-palmitoly-β-oleolyldiglyceride]
- Glycerol liberated [3]: detected
- Glycerol liberated (pancreatic lipase): not detected

SMILES: CCCCCCCCCCCCCCCC(=O)OCC(O)CO (stereo not drawn) [Monopalmitin]
- Activity of lipase (%) (monoglyceride lipase [1]): 39.5%

SMILES: CCCCCCCC/C=C\CCCCCCCC(=O)OCC(CO)OC(=O)CCCCCCCCCCCCCCC (stereo not drawn) [α-oleyl-β-palmitoyldiglyceride]
- Glycerol liberated [3]: detected
- Glycerol liberated (pancreatic lipase): not detected

SMILES: CCCCCCCCCC(=O)OCC(O)CO (stereo not drawn) [Monocaprin]
- Activity of lipase (%) (monoglyceride lipase [1]): 89.1%

SMILES: CCCCCCCCCCCCCC(=O)OCC(O)CO (stereo not drawn) [Monomyristin]
- Activity of lipase (%) (monoglyceride lipase [1]): 85.7%

SMILES: O=C(O)CN(CCN(CC(=O)O)CC(=O)O)CC(=O)O [EDTA]
- Activity of lipase (%) (monoglyceride lipase [2]; [4]): 86.0%

SMILES: [Cl-].[Cl-].[Mg+2] [MgCl2, magnesium chloride]
- Effect of added reagent on monoglyceride lipase activity (monoglyceride lipase [2]): not affected
- Activity of lipase (%) (monoglyceride lipase [2]; [4]): 100.0%

SMILES: CC(=O)OCC(O)CO (stereo not drawn) [Monoacetin]
- Activity of lipase (%) (monoglyceride lipase [1]): 10.1%

SMILES: CCCC(=O)OCC(COC(=O)CCC)OC(=O)CCC [Tributyrin]
- Activity of lipase (%) (monoglyceride lipase [1]): 0%

SMILES: CC(=O)OCC(COC(C)=O)OC(C)=O [Triacetin]
- Activity of lipase (%) (monoglyceride lipase [1]): 0%

SMILES: CCCCCCCC/C=C\CCCCCCCC(=O)OCC(COC(=O)CCCCCCC/C=C\CCCCCCCC)OC(=O)CCCCCCC/C=C\CCCCCCCC [Triolein]
- Glycerol hydrolyzed from substrate in the presence of the monoglyceride lipase (monoglyceride lipase [1]): no glycerol hydrolyzed is detected
- Activity of lipase (%) (monoglyceride lipase [1]): 0%

SMILES: CCCCCCCCCCCCCCCCCC(=O)OCC(O)CO (stereo not drawn) [Monostearin]
- Activity of lipase (%) (monoglyceride lipase [1]): 27.6%

SMILES: CCCCC/C=C\C/C=C\CCCCCCCC(=O)OCC(CO)OC(=O)CCCCCCC/C=C\C/C=C\CCCCC (stereo not drawn) [1,2-dilinolein]
- Glycerol hydrolyzed from substrate in the presence of the monoglyceride lipase (monoglyceride lipase [1]): no glycerol hydrolyzed is detected
- Activity of lipase (%) (monoglyceride lipase [1]): 0%

SMILES: CCCC(=O)OCC(O)CO (stereo not drawn) [Monobutyrin]
- Activity of lipase (%) (monoglyceride lipase [1]): 47.1%

SMILES: CCCCC/C=C\C/C=C\CCCCCCCC(=O)OCC(CO)OC(=O)CCCCCCC/C=C\C/C=C\CCCCC (stereo not drawn) [α,β-dilinoleylglyceride]
- Glycerol liberated [3]: detected
- Glycerol liberated (pancreatic lipase): not detected
